Assay results reported in ChEMBL document CHEMBL1201862, “PubChem BioAssay data set” (2004).
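These data come from cells grown in 96-well plates and exposed to compound for 48 hours at five concentrations. The concentration for 50% growth inhibition is given as GI50.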 The source made the active and inactive calls. No stated cut-off is given here; in the data, active = GI50 up to about 1.1 µM and inactive = higher.

How the values were obtained:
Assay in all cases: NCI anticancer screen, dose series, 48 h
HCT-15 = system: HCT-15
SF-268 = system: SF-268
KM12 = system: KM12
NCI-H23 = system: NCI-H23
NCI/ADR-RES = system: NCI/ADR-RES
NCI-H226 = system: NCI-H226
BT-549 = system: BT-549
SNB-75 = system: SNB-75
SF-539 = system: SF-539
SF-295 = system: SF-295
SK-MEL-5 = system: SK-MEL-5
M14 = system: M14
Hs-578T = system: Hs-578T
HCT-116 = system: HCT-116
MOLT-4 = system: MOLT-4
SR = system: SR
SN12C = system: SN12C
OVCAR-4 = system: OVCAR-4
MDA-MB-231 = system: MDA-MB-231

Row | Structure (SMILES) | GI50 (HCT-15) | GI50 (SF-268) | GI50 (KM12) | GI50 (NCI-H23) | GI50 (NCI/ADR-RES) | GI50 (NCI-H226) | GI50 (BT-549) | GI50 (SNB-75) | GI50 (SF-539) | GI50 (SF-295) | GI50 (SK-MEL-5) | GI50 (M14) | GI50 (Hs-578T) | GI50 (HCT-116) | GI50 (MOLT-4) | GI50 (SR) | GI50 (SN12C) | GI50 (OVCAR-4) | GI50 (MDA-MB-231)
1 | c1ccc2cc3c(cc2c1)nc1ccccn13 | > 100 µM | > 100 µM (inactive) | > 100 µM (inactive) | > 100 µM (inactive) | > 100 µM (inactive) | > 100 µM (inactive) | > 100 µM (inactive) | > 100 µM (inactive) | > 100 µM (inactive) | > 100 µM (inactive) | > 100 µM (inactive) | > 100 µM (inactive) | 21 µM (inactive) | 96.2 µM (inactive) | > 100 µM (inactive) | > 100 µM (inactive) | > 100 µM (inactive) |  | 
2 | CN1CCN(C(=S)N(C(=O)c2ccco2)C2CCCCC2)CC1 | > 100 µM | > 100 µM (inactive) | > 100 µM (inactive) | > 100 µM (inactive) |  | > 100 µM (inactive) | > 100 µM (inactive) | 50.7 µM (inactive) |  | > 100 µM (inactive) | > 100 µM (inactive) | > 100 µM (inactive) | > 100 µM (inactive) |  | > 10 µM (inactive) | > 100 µM (inactive) | > 100 µM (inactive) | > 100 µM (inactive) | > 100 µM (inactive)
3 | CCOC(=O)C1CCCc2sc(N)c(C#N)c21 (stereo not drawn) | > 100 µM |  | > 100 µM (inactive) | > 100 µM (inactive) |  | > 100 µM (inactive) | 55.5 µM (inactive) | > 100 µM (inactive) |  |  | > 100 µM (inactive) | > 100 µM (inactive) | > 100 µM (inactive) | > 100 µM (inactive) | > 100 µM (inactive) | > 100 µM (inactive) | > 100 µM (inactive) |  | > 100 µM (inactive)
4 | CC1=CC(C)(C)NN1C1=NS(=O)(=O)c2ccccc2N1C | 89.9 µM | > 100 µM (inactive) | > 100 µM (inactive) | > 100 µM (inactive) | > 100 µM (inactive) | > 100 µM (inactive) | > 100 µM (inactive) |  | > 100 µM (inactive) | > 100 µM (inactive) | > 100 µM (inactive) | > 100 µM (inactive) | > 100 µM (inactive) | > 100 µM (inactive) | 47.9 µM (inactive) |  | > 100 µM (inactive) | 44.3 µM (inactive) | > 100 µM (inactive)
5 | CN1c2ccccc2S(=O)(=O)n2c(COc3ccccc3)nnc21 | > 100 µM | > 100 µM (inactive) | > 100 µM (inactive) | > 100 µM (inactive) | > 100 µM (inactive) | > 100 µM (inactive) | 64.4 µM (inactive) |  | 62.8 µM (inactive) | 45.7 µM (inactive) | > 100 µM (inactive) | > 100 µM (inactive) | > 100 µM (inactive) | > 100 µM (inactive) | > 100 µM (inactive) |  | > 100 µM (inactive) | > 100 µM (inactive) | > 100 µM (inactive)
6 | COc1ccc(/C=C2\Sc3nnc(C)n3N=C2c2cc(F)c(Cl)cc2Cl)cc1OC | 6.93 µM | 22.4 µM (inactive) | 15.2 µM (inactive) | 12.4 µM (inactive) | 14.6 µM (inactive) | 23.2 µM (inactive) | 17.8 µM (inactive) |  | 17 µM (inactive) | 22.1 µM (inactive) | 18.8 µM (inactive) | 13.6 µM (inactive) | 41.9 µM (inactive) | 5.98 µM (inactive) | 3.35 µM (inactive) |  | 17.5 µM (inactive) | 13.2 µM (inactive) | 26.4 µM (inactive)
7 | C/C(=C\c1ccccn1)c1ccccn1 | > 100 µM | > 100 µM (inactive) | > 100 µM (inactive) | > 100 µM (inactive) | > 100 µM (inactive) |  | > 100 µM (inactive) | > 100 µM (inactive) |  | > 100 µM (inactive) | > 100 µM (inactive) | > 100 µM (inactive) | > 100 µM (inactive) | > 100 µM (inactive) | > 100 µM (inactive) |  |  | > 100 µM (inactive) | > 100 µM (inactive)
